Assay results reported in ChEMBL document CHEMBL1909046, “DrugMatrix in vitro pharmacology data”.

Assays:
[1] = target: T1, Alpha-2A adrenergic receptor (Homo sapiens, UniProt P08913); format: cell membranes, Sf9, Membrane; conditions: sf9; note: in other assays of this panel Not Active means under 50% inhibition at 10 µM
T1 sequence (P08913 whole entry): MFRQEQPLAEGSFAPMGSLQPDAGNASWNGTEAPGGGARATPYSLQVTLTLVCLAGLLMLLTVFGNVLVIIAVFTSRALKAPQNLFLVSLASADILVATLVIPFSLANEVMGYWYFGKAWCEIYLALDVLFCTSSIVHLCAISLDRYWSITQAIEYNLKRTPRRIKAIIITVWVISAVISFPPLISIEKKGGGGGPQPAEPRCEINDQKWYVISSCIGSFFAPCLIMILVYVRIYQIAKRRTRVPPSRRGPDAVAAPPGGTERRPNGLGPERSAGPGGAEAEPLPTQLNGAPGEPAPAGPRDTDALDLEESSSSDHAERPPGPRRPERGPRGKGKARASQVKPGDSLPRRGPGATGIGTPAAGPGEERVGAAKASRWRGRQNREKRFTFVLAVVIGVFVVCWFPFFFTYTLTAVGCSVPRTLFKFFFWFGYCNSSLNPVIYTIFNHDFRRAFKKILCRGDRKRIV

[2] = target: Beta-2 adrenergic receptor (Homo sapiens, UniProt P07550); test: DRUGMATRIX: Adrenergic beta2 radioligand binding (ligand: [3H] CGP-12177); format: cell membranes, Membrane; conditions: cho; Not Active = under 50% inhibition at 10 µM
Chain of Beta-2 adrenergic receptor (P07550 whole entry): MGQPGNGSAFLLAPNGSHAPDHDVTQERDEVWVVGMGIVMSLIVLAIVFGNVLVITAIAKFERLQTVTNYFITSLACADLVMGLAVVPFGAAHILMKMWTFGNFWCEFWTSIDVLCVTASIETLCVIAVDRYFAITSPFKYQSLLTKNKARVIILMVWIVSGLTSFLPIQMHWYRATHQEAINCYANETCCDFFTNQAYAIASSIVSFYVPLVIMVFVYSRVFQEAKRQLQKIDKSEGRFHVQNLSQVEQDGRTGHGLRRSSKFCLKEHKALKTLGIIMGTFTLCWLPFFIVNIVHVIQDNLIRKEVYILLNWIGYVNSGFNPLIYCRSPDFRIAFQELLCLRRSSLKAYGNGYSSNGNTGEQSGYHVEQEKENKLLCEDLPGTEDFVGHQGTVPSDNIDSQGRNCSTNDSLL

[3] = target: 5-hydroxytryptamine receptor 4 (Cavia porcellus, UniProt O70528); format: cell membranes, Dunkin-Hartley, Striatum, Membrane; note: in other assays of this panel Not Active means under 50% inhibition at 10 µM
Chain of 5-hydroxytryptamine receptor 4 (O70528 whole entry): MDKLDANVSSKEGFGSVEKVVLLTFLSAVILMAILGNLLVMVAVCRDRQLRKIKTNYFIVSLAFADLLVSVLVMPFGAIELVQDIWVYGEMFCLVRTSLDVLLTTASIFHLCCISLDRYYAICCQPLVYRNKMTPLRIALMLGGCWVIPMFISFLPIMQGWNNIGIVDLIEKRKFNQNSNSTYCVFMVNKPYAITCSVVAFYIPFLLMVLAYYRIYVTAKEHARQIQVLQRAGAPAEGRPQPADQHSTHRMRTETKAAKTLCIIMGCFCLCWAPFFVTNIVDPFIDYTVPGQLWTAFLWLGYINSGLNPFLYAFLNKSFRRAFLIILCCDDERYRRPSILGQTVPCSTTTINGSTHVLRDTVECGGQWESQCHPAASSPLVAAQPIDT

Substance-P receptor = Substance-P receptor (Homo sapiens, UniProt P25103); format: cell membranes, Membrane; conditions: cho; note: in other assays of this panel Not Active means under 50% inhibition at 10 µM
Chain of Substance-P receptor (P25103 whole entry): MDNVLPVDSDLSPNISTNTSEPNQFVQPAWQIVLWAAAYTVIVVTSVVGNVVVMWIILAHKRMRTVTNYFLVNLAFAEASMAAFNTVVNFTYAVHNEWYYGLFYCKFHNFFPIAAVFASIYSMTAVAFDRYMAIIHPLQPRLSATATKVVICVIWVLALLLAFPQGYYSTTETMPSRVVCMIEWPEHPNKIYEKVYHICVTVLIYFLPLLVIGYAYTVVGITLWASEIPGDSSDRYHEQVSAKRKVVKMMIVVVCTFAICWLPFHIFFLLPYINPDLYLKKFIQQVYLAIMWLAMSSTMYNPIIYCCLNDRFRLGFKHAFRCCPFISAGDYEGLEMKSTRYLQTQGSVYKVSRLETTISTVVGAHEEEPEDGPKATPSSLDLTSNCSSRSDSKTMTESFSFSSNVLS

D(4) dopamine receptor = target: T2, D(4) dopamine receptor (Homo sapiens, UniProt P21917); test: DRUGMATRIX: Dopamine D4.2 radioligand binding (ligand: [3H] Spiperone); format: cell membranes, Membrane; conditions: cho-k1; Not Active = under 50% inhibition at 10 µM
T2 sequence (P21917 whole entry): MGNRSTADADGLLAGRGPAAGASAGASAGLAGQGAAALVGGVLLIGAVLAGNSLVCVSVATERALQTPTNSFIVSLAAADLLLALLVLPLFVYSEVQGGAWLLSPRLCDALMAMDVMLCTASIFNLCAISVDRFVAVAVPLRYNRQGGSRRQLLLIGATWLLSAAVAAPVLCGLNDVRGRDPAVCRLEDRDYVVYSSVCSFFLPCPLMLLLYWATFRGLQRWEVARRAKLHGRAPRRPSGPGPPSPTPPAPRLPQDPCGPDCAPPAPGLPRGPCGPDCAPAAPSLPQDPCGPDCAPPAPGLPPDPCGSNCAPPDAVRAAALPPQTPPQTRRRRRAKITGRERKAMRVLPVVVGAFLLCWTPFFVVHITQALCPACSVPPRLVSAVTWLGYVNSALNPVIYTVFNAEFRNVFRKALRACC

[4] = DRUGMATRIX: Interleukin IL-1 radioligand binding (ligand: [125I] interleukin 1beta); format: cell membranes, Membrane; conditions: nih3t3; Not Active = under 50% inhibition at 10 µM
[5] = DRUGMATRIX: Purinergic P2X radioligand binding (ligand: [3H] alpha, beta-Methylene-ATP); format: cell membranes, Oryctolagus cuniculus, New Zealand albino, Urinary bladder, Membrane; conditions: Not Active = under 50% inhibition at 10 µM

SMILES	IC50 [1]	IC50 [2]	IC50 [3]	IC50 (Substance-P receptor)	IC50 (D(4) dopamine receptor)	IC50 [4]	Ki [4]	IC50 [5]	Ki [5]	IC50 ([3]; read-out: IC50) [µM]	Ki ([3]; read-out: Ki) [µM]
O=c1ccc2ccccc2o1 [COUMARIN]	Not Active	Not Active	Not Active	Not Active	Not Active	Not Active	Not Active	Not Active	Not Active		
CN1C(=O)COc2c(C(=O)NC3CN4CCC3CC4)cc(Cl)cc21 (stereo unspecified) [AZASETRON]	Not Active	Not Active	Not Active	Not Active	Not Active	Not Active	Not Active	Not Active	Not Active		
C[C@H]1C[C@H]2[C@@H]3CCC4=CC(=O)C=C[C@]4(C)[C@@]3(Cl)[C@@H](O)C[C@]2(C)[C@@]1(O)C(=O)CO [BECLOMETHASONE]	Not Active	Not Active	Not Active	Not Active	Not Active	Not Active	Not Active	Not Active	Not Active		
Cc1cc(=O)n(-c2ccccc2)n1C [ANTIPYRINE]	Not Active	Not Active	Not Active	Not Active	Not Active	Not Active	Not Active	Not Active	Not Active		
COc1cccc2c1C(=O)c1c(O)c3c(c(O)c1C2=O)C[C@@](O)(C(=O)CO)C[C@@H]3O[C@H]1C[C@H](N)[C@@H](O)[C@H](C)O1 [EPIRUBICIN]	Not Active	Not Active		Not Active	Not Active	Not Active	Not Active	Not Active	Not Active	7.94	1.32
C[C@](O)(CS(=O)(=O)c1ccc(F)cc1)C(=O)Nc1ccc(C#N)c(C(F)(F)F)c1 [(R)-BICALUTAMIDE]	Not Active	Not Active	Not Active	Not Active	Not Active	Not Active	Not Active	Not Active	Not Active		
COc1ccc2c(c1)[C@]13CCCC[C@@H]1[C@H](C2)N(C)CC3 [DEXTROMETHORPHAN]	Not Active	Not Active	Not Active	Not Active	Not Active	Not Active	Not Active	Not Active	Not Active		
COP(=O)(OC)OC=C(Cl)Cl [DICHLORVOS]	Not Active	Not Active	Not Active	Not Active	Not Active	Not Active	Not Active	Not Active	Not Active		
CCN[C@@H]1C[C@H](N)[C@@H](O[C@H]2OC(CN)=CC[C@H]2N)[C@H](O)[C@H]1O[C@H]1OC[C@](C)(O)[C@H](NC)[C@H]1O [NETILMICIN]	Not Active	Not Active	Not Active	Not Active	Not Active	Not Active	Not Active	Not Active	Not Active		
CN(C)/N=N/c1[nH]cnc1C(N)=O [DACARBAZINE]	Not Active	Not Active	Not Active	Not Active	Not Active	Not Active	Not Active	Not Active	Not Active		
O=NN(CCCl)C(=O)NCCCl [CARMUSTINE]	Not Active	Not Active	Not Active	Not Active	Not Active	Not Active	Not Active	Not Active	Not Active		
Oc1ccc(OCc2ccccc2)cc1 [MONOBENZONE]	Not Active	Not Active	Not Active	Not Active	Not Active	Not Active	Not Active	Not Active	Not Active		
O=C1CC2(CCCC2)CC(=O)N1CCCCN1CCN(c2ncccn2)CC1 [BUSPIRONE]	Not Active	Not Active	Not Active	Not Active	Not Active	Not Active	Not Active	Not Active	Not Active		
Nc1ccn([C@@H]2CS[C@H](CO)O2)c(=O)n1 [LAMIVUDINE]	Not Active	Not Active	Not Active	Not Active	Not Active	Not Active	Not Active	Not Active	Not Active		
COc1ccc2c(c1)c(CC(=O)O)c(C)n2C(=O)c1ccc(Cl)cc1 [INDOMETHACIN]	Not Active	Not Active	Not Active	Not Active	Not Active	Not Active	Not Active	Not Active	Not Active		
CC(C)[C@H]1CC[C@H](C(=O)N[C@H](Cc2ccccc2)C(=O)O)CC1 [NATEGLINIDE]	Not Active	Not Active	Not Active	Not Active	Not Active	Not Active	Not Active	Not Active	Not Active		
C[C@]12CC[C@@H]3c4ccc(OC(=O)c5ccccc5)cc4CC[C@H]3[C@@H]1CC[C@@H]2O [ESTRADIOL BENZOATE]	Not Active	Not Active	Not Active	Not Active	Not Active	Not Active	Not Active	Not Active	Not Active		
CC1(C)O[C@@H]2C[C@H]3[C@@H]4C[C@H](F)C5=CC(=O)C=C[C@]5(C)[C@H]4[C@@H](O)C[C@]3(C)[C@]2(C(=O)CO)O1 [FLUNISOLIDE]	Not Active	Not Active	Not Active	Not Active	Not Active	Not Active	Not Active	Not Active	Not Active		
CC1=C(C(=O)O)N2C(=O)[C@@H](NC(=O)[C@H](N)c3ccccc3)[C@H]2SC1 [CEPHALEXIN ANHYDROUS]	Not Active	Not Active	Not Active	Not Active	Not Active	Not Active	Not Active	Not Active	Not Active		
COC(=O)C1=C(C)NC(C)=C(C(=O)OCC(C)C)C1c1ccccc1[N+](=O)[O-] (stereo unspecified) [NISOLDIPINE]	Not Active	Not Active	Not Active	Not Active	Not Active	Not Active	Not Active	Not Active	Not Active		
CC(=O)Nc1ccc(O)cc1 [ACETAMINOPHEN]	Not Active	Not Active	Not Active	Not Active	Not Active	Not Active	Not Active	Not Active	Not Active		
CCc1c2c(nc3ccc(OC(=O)N4CCC(N5CCCCC5)CC4)cc13)-c1cc3c(c(=O)n1C2)COC(=O)[C@]3(O)CC [IRINOTECAN]	Not Active	Not Active	Not Active	Not Active	Not Active	Not Active	Not Active	Not Active	Not Active		
C[C@]12CC[C@@H]3c4ccc(O)cc4CC[C@H]3[C@@H]1CC[C@@H]2O [ESTRADIOL]	Not Active	Not Active	Not Active	Not Active	Not Active	Not Active	Not Active	Not Active	Not Active		
C#C[C@]1(OC(C)=O)CC[C@H]2[C@@H]3CCC4=CC(=O)CC[C@@H]4[C@H]3CC[C@@]21C [NORETHINDRONE ACETATE]	Not Active	Not Active	Not Active	Not Active	Not Active	Not Active	Not Active	Not Active	Not Active		
N=C(Nc1ccccc1)Nc1ccccc1	Not Active	Not Active	Not Active	Not Active	Not Active	Not Active	Not Active	Not Active	Not Active		
